How the values were obtained:
[1] = molecular target: T1, DPP4 (dipeptidyl peptidase 4) (Homo sapiens, UniProt P27487); experiment: Drug degradation assessed as recombinant human DPP4-mediated cleavage by measuring compound remaining after 1 hr by RP-HPLC analysis; type: ADME; conditions: read-out: Stability
[2] = molecular target: T1, DPP4 (dipeptidyl peptidase 4); experiment: Drug degradation assessed as recombinant human DPP4-mediated cleavage by measuring compound remaining after 8 hrs by RP-HPLC analysis; type: ADME; conditions: read-out: Stability
[3] = molecular target: Glucagon-like peptide 1 receptor (Homo sapiens, UniProt P43220); experiment: Activation of human GLP1R expressed in HEK293 cells preincubated for 30 mins followed by addition of cAMP-d2 conjugate/cryptate conjugate incubated for 60 mins by fluorescence analysis; type: functional, cell-based
Chain of Glucagon-like peptide 1 receptor (P43220 whole entry): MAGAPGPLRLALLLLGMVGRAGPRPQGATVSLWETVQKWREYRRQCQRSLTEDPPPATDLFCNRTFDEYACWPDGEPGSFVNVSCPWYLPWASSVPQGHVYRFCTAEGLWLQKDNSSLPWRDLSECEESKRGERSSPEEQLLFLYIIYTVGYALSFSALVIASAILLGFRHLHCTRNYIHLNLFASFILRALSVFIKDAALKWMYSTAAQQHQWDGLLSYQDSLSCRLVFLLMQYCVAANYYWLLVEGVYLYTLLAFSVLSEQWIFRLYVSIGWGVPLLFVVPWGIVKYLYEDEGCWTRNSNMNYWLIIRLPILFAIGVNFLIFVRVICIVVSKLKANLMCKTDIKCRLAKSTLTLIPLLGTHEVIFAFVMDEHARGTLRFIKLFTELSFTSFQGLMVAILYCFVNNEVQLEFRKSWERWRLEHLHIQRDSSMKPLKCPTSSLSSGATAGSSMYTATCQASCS

[4] = molecular target: T1, DPP4 (dipeptidyl peptidase 4); experiment: Half life of compound assessed as recombinant human DPP4-mediated cleavage by RP-HPLC analysis; type: ADME
[5] = molecular target: T1, DPP4 (dipeptidyl peptidase 4); experiment: Drug degradation assessed as recombinant human DPP4-mediated cleavage by measuring compound remaining after 4 hrs by RP-HPLC analysis; type: ADME; conditions: read-out: Stability
[6] = molecular target: T1, DPP4 (dipeptidyl peptidase 4); experiment: Drug degradation assessed as recombinant human DPP4-mediated cleavage by measuring compound remaining after 2 hrs by RP-HPLC analysis; type: ADME; conditions: read-out: Stability
[7] = molecular target: T1, DPP4 (dipeptidyl peptidase 4); experiment: Drug degradation assessed as recombinant human DPP4-mediated cleavage by measuring compound remaining after 12 hrs by RP-HPLC analysis; type: ADME; conditions: read-out: Stability
[8] = Retention time of compound over 30 mins by HPLC analysis; type: physicochemical; conditions: 0.5 h
[9] = molecular target: T1, DPP4 (dipeptidyl peptidase 4); experiment: Drug degradation assessed as recombinant human DPP4-mediated cleavage by measuring compound remaining after 48 hrs by RP-HPLC analysis; type: ADME; conditions: read-out: Stability
[10] = molecular target: T1, DPP4 (dipeptidyl peptidase 4); experiment: Drug degradation assessed as recombinant human DPP4-mediated cleavage by measuring compound remaining after 96 hrs by RP-HPLC analysis; type: ADME; conditions: read-out: Stability
[11] = molecular target: T1, DPP4 (dipeptidyl peptidase 4); experiment: Drug degradation assessed as recombinant human DPP4-mediated cleavage by measuring compound remaining after 72 hrs by RP-HPLC analysis; type: ADME; conditions: read-out: Stability
[12] = molecular target: T1, DPP4 (dipeptidyl peptidase 4); experiment: Drug degradation assessed as recombinant human DPP4-mediated cleavage by measuring compound remaining after 24 hrs by RP-HPLC analysis; type: ADME; conditions: read-out: Stability
Mus musculus [13] = experiment: Reduction in blood glucose in Kunming mouse assessed as blood glucose level at 25 nmol/kg, ip at administered 0 mins followed by first glucose challenge at 40 mins followed by second glucose challenge at 310 mins and measured at 325 mins by glucose tolerance test (reference value: 4.9 to 6.3 mmol/L); type: functional
Mus musculus [14] = experiment: Reduction in blood glucose in Kunming mouse assessed as blood glucose level at 25 nmol/kg, ip at administered 0 mins followed by first glucose challenge at 40 mins followed by second glucose challenge at 310 mins and measured at 430 mins by glucose tolerance test (reference value: 4.9 to 6.3 mmol/L); type: functional
Mus musculus [15] = experiment: Reduction in blood glucose in Kunming mouse assessed as blood glucose level at 25 nmol/kg, ip at administered 0 mins followed by first glucose challenge at 40 mins followed by second glucose challenge at 310 mins and measured at 160 mins by glucose tolerance test (reference value: 4.9 to 6.3 mmol/L); type: functional
Mus musculus [16] = experiment: Reduction in blood glucose in Kunming mouse assessed as blood glucose level at 25 nmol/kg, ip at administered 0 mins followed by first glucose challenge at 40 mins followed by second glucose challenge at 310 mins and measured at 115 mins by glucose tolerance test (reference value: 4.9 to 6.3 mmol/L); type: functional
Mus musculus [17] = experiment: Reduction in blood glucose in Kunming mouse assessed as blood glucose level at 25 nmol/kg, ip at administered 0 mins followed by first glucose challenge at 40 mins followed by second glucose challenge at 310 mins and measured at 385 mins by glucose tolerance test (reference value: 4.9 to 6.3 mmol/L); type: functional
Mus musculus [18] = experiment: Reduction in blood glucose in Kunming mouse assessed as blood glucose level at 25 nmol/kg, ip at administered 0 mins followed by first glucose challenge at 40 mins followed by second glucose challenge at 310 mins and measured at 350 mins by glucose tolerance test (reference value: 4.9 to 6.3 mmol/L); type: functional
Mus musculus [19] = experiment: Reduction in blood glucose in Kunming mouse assessed as blood glucose level at 25 nmol/kg, ip at administered 0 mins followed by first glucose challenge at 40 mins followed by second glucose challenge at 310 mins and measured at 55 mins by glucose tolerance test (reference value: 4.9 to 6.3 mmol/L); type: functional
Mus musculus [20] = experiment: Reduction in blood glucose in Kunming mouse assessed as blood glucose level at 25 nmol/kg, ip at administered 0 mins followed by first glucose challenge at 40 mins followed by second glucose challenge at 310 mins and measured at 80 mins by glucose tolerance test (reference value: 4.9 to 6.3 mmol/L); type: functional
Mus musculus [21] = experiment: Reduction in blood glucose in Kunming mouse assessed as blood glucose level at 25 nmol/kg, ip at administered 0 mins followed by first glucose challenge at 40 mins followed by second glucose challenge at 310 mins and measured at 310 mins by glucose tolerance test (reference value: 4.9 to 6.3 mmol/L); type: functional
Mus musculus [22] = experiment: Reduction in blood glucose in Kunming mouse assessed as blood glucose level at 25 nmol/kg, ip at administered 0 mins followed by first glucose challenge at 40 mins followed by second glucose challenge at 310 mins and measured at 40 mins by glucose tolerance test (reference value: 4.9 to 6.3 mmol/L); type: functional

T1 sequence (P27487 whole entry): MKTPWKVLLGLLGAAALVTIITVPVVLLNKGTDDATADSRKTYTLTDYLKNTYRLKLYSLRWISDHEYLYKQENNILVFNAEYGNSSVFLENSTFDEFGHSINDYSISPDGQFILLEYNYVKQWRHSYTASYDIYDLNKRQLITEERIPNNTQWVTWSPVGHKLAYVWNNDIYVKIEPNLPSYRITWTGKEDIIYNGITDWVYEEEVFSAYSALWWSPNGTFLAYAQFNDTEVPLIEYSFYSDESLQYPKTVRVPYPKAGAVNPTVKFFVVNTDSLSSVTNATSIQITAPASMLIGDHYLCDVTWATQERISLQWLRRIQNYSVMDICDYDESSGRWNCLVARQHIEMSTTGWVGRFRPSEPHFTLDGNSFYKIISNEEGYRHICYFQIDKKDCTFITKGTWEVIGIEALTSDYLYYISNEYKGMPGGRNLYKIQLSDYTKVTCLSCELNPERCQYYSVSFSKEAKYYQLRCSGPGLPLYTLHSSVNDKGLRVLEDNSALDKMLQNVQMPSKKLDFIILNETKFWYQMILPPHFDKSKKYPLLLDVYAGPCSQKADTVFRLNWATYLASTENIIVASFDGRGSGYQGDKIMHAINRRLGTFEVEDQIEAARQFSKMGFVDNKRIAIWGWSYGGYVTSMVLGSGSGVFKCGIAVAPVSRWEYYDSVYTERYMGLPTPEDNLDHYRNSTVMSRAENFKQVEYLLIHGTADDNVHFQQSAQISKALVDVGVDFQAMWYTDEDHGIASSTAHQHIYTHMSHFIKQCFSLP

CC[C@H](C)[C@H](NC(=O)[C@H](Cc1ccccc1)NC(=O)[C@H](CCC(=O)O)NC(=O)[C@H](CCCCN)NC(=O)[C@H](C)NC(=O)[C@H](C)NC(=O)[C@H](CCC(N)=O)NC(=O)CNC(=O)[C@H](CCC(=O)O)NC(=O)[C@H](CC(C)C)NC(=O)[C@H](Cc1ccc(O)cc1)NC(=O)[C@H](CO)NC(=O)[C@H](CO)NC(=O)[C@@H](NC(=O)[C@H](CC(=O)O)NC(=O)[C@H](CO)NC(=O)[C@@H](NC(=O)[C@H](Cc1ccccc1)NC(=O)[C@@H](NC(=O)CCNC(=O)[C@H](CCC(=O)O)NC(=O)[C@H](C)NC(=O)[C@@H](N)Cc1cnc[nH]1)[C@@H](C)O)[C@@H](C)O)C(C)C)C(=O)N[C@@H](C)C(=O)N[C@@H](Cc1c[nH]c2ccccc12)C(=O)N[C@@H](CC(C)C)C(=O)N[C@H](C(=O)N[C@@H](CCCCN)C(=O)NCC(=O)N[C@@H](CCCNC(=N)N)C(N)=O)C(C)C
remaining at 1 h [1]: 74.8% | remaining at 8 h [2]: 14.9% | EC50 [3]: 0.0636 nM | half-life [4]: 2.39 h | remaining at 4 h [5]: 34.8% | remaining at 2 h [6]: 57.5% | remaining at 12 h [7]: 7.5% | Retention_time [8]: 14.566 min

CC[C@H](C)[C@H](NC(=O)[C@H](Cc1ccccc1)NC(=O)[C@H](CCC(=O)O)NC(=O)[C@H](CCCCN)NC(=O)[C@H](C)NC(=O)[C@H](C)NC(=O)[C@H](CCC(N)=O)NC(=O)CNC(=O)[C@H](CCC(=O)O)NC(=O)[C@H](CC(C)C)NC(=O)[C@H](Cc1ccc(O)cc1)NC(=O)[C@H](CO)NC(=O)[C@H](CO)NC(=O)[C@@H](NC(=O)[C@H](CC(=O)O)NC(=O)[C@H](CO)NC(=O)[C@@H](NC(=O)[C@H](Cc1ccccc1)NC(=O)[C@@H](NC(=O)CNC(=O)[C@H](CCC(=O)O)NC(=O)C[C@H](C)NC(=O)[C@@H](N)Cc1cnc[nH]1)[C@@H](C)O)[C@@H](C)O)C(C)C)C(=O)N[C@@H](C)C(=O)N[C@@H](Cc1c[nH]c2ccccc12)C(=O)N[C@@H](CC(C)C)C(=O)N[C@H](C(=O)N[C@@H](CCCCN)C(=O)NCC(=O)N[C@@H](CCCNC(=N)N)C(=O)O)C(C)C
remaining at 48 h [9]: 100% | remaining at 1 h [1]: 100% | remaining at 8 h [2]: 100% | half-life [4]: > 96 h | remaining at 96 h [10]: 100% | remaining at 72 h [11]: 100% | remaining at 4 h [5]: 100% | remaining at 2 h [6]: 100% | remaining at 24 h [12]: 100% | remaining at 12 h [7]: 100% | Retention_time [8]: 14.536 min

CC[C@H](C)[C@H](NC(=O)[C@H](Cc1ccccc1)NC(=O)[C@H](CCC(=O)O)NC(=O)[C@H](CCCCN)NC(=O)[C@H](C)NC(=O)[C@H](C)NC(=O)[C@H](CCC(N)=O)NC(=O)CNC(=O)[C@H](CCC(=O)O)NC(=O)[C@H](CC(C)C)NC(=O)[C@H](Cc1ccc(O)cc1)NC(=O)[C@H](CO)NC(=O)[C@H](CO)NC(=O)[C@@H](NC(=O)[C@H](CC(=O)O)NC(=O)[C@H](CO)NC(=O)[C@@H](NC(=O)[C@H](Cc1ccccc1)NC(=O)[C@@H](NC(=O)CNC(=O)[C@H](CCC(=O)O)NC(=O)[C@H](C)CNC(=O)[C@@H](N)Cc1cnc[nH]1)[C@@H](C)O)[C@@H](C)O)C(C)C)C(=O)N[C@@H](C)C(=O)N[C@@H](Cc1c[nH]c2ccccc12)C(=O)N[C@@H](CC(C)C)C(=O)N[C@H](C(=O)N[C@@H](CCCCN)C(=O)NCC(=O)N[C@@H](CCCNC(=N)N)C(N)=O)C(C)C [listing 1 of 2 here]
remaining at 48 h [9]: 100% | half-life [4]: > 96 h | remaining at 96 h [10]: 100% | remaining at 72 h [11]: 100% | remaining at 24 h [12]: 100% | remaining at 12 h [7]: 100% | Retention_time [8]: 14.005 min

CC[C@H](C)[C@H](NC(=O)[C@H](Cc1ccccc1)NC(=O)[C@H](CCC(=O)O)NC(=O)[C@H](CCCCN)NC(=O)[C@H](C)NC(=O)[C@H](C)NC(=O)[C@H](CCC(N)=O)NC(=O)CNC(=O)[C@H](CCC(=O)O)NC(=O)[C@H](CC(C)C)NC(=O)[C@H](Cc1ccc(O)cc1)NC(=O)[C@H](CO)NC(=O)[C@H](CO)NC(=O)[C@@H](NC(=O)[C@H](CC(=O)O)NC(=O)[C@H](CO)NC(=O)[C@@H](NC(=O)[C@H](Cc1ccccc1)NC(=O)[C@@H](NC(=O)CNC(=O)[C@H](CCC(=O)O)NC(=O)[C@H](C)CNC(=O)[C@@H](N)Cc1cnc[nH]1)[C@@H](C)O)[C@@H](C)O)C(C)C)C(=O)N[C@@H](C)C(=O)N[C@@H](Cc1c[nH]c2ccccc12)C(=O)N[C@@H](CC(C)C)C(=O)N[C@H](C(=O)N[C@@H](CCCCN)C(=O)NCC(=O)N[C@@H](CCCNC(=N)N)C(N)=O)C(C)C [listing 2 of 2 here]
Activity (Mus musculus [13]): 23.4 mmol/L | Activity (Mus musculus [14]): 7.8 mmol/L | Activity (Mus musculus [15]): 6.9 mmol/L | Activity (Mus musculus [16]): 10.8 mmol/L | Activity (Mus musculus [17]): 8.1 mmol/L | Activity (Mus musculus [18]): 16.5 mmol/L | Activity (Mus musculus [19]): 13.5 mmol/L | Activity (Mus musculus [20]): 16.6 mmol/L | Activity (Mus musculus [21]): 5.4 mmol/L | Activity (Mus musculus [22]): 6.1 mmol/L

CC[C@H](C)[C@H](NC(=O)[C@H](Cc1ccccc1)NC(=O)[C@H](CCC(=O)O)NC(=O)[C@H](CCCCN)NC(=O)[C@H](C)NC(=O)[C@H](C)NC(=O)[C@H](CCC(N)=O)NC(=O)CNC(=O)[C@H](CCC(=O)O)NC(=O)[C@H](CC(C)C)NC(=O)[C@H](Cc1ccc(O)cc1)NC(=O)[C@H](CO)NC(=O)[C@H](CO)NC(=O)[C@@H](NC(=O)[C@H](CC(=O)O)NC(=O)[C@H](CO)NC(=O)[C@@H](NC(=O)[C@H](Cc1ccccc1)NC(=O)[C@@H](NC(=O)CNC(=O)[C@H](CCC(=O)O)NC(=O)C1(NC(=O)[C@@H](N)Cc2cnc[nH]2)CC1)[C@@H](C)O)[C@@H](C)O)C(C)C)C(=O)N[C@@H](C)C(=O)N[C@@H](Cc1c[nH]c2ccccc12)C(=O)N[C@@H](CC(C)C)C(=O)N[C@H](C(=O)N[C@@H](CCCCN)C(=O)NCC(=O)N[C@@H](CCCNC(=N)N)C(N)=O)C(C)C
remaining at 48 h [9]: 100% | EC50 ([3]; hek293): 0.0284 nM | half-life [4]: > 96 h | remaining at 96 h [10]: 100% | remaining at 72 h [11]: 100% | remaining at 24 h [12]: 100% | remaining at 12 h [7]: 100% | Retention_time [8]: 13.842 min

CC[C@H](C)[C@H](NC(=O)[C@H](Cc1ccccc1)NC(=O)[C@H](CCC(=O)O)NC(=O)[C@H](CCCCN)NC(=O)[C@H](C)NC(=O)[C@H](C)NC(=O)[C@H](CCC(N)=O)NC(=O)CNC(=O)[C@H](CCC(=O)O)NC(=O)[C@H](CC(C)C)NC(=O)[C@H](Cc1ccc(O)cc1)NC(=O)[C@H](CO)NC(=O)[C@H](CO)NC(=O)[C@@H](NC(=O)[C@H](CC(=O)O)NC(=O)[C@H](CO)NC(=O)[C@@H](NC(=O)[C@H](Cc1ccccc1)NC(=O)[C@@H](NC(=O)CNC(=O)C[C@@H](CCC(=O)O)NC(=O)[C@H](C)NC(=O)[C@@H](N)Cc1cnc[nH]1)[C@@H](C)O)[C@@H](C)O)C(C)C)C(=O)N[C@@H](C)C(=O)N[C@@H](Cc1c[nH]c2ccccc12)C(=O)N[C@@H](CC(C)C)C(=O)N[C@H](C(=O)N[C@@H](CCCCN)C(=O)NCC(=O)N[C@@H](CCCNC(=N)N)C(N)=O)C(C)C
remaining at 48 h [9]: 61.3% | half-life [4]: 96 h | remaining at 96 h [10]: 41.7% | remaining at 72 h [11]: 54% | remaining at 24 h [12]: 72.7% | remaining at 12 h [7]: 82.9% | Retention_time [8]: 14.669 min
